{"source": "patent US20200323828A1", "about": "“METHODS OF TREATING BEHAVIOR ALTERATIONS” (Oryzon Genomics, S.A., priority 2017, published 2020)", "format_in_all_cases": "in vivo", "key": {"[1]": {"tested_on": "male SAMP8 mice", "assay": "Open field (OF) test in male SAMP8 mice", "settings": "0.32 or 0.96 mg/kg/day in drinking water", "procedure": "(§1) Animals (n=8/group) were treated from month 5 of age with vehicle, 0.32 or 0.96 mg/kg/day Compound 1, and by month 7 of treatment they were sequentially submitted to the OF and EPM test at one week intervals.\n(§2) Vehicle (1.8% 2-Hydroxypropyl-(3-cyclodextrin, Sigma-Aldrich, Spain) or KDM1A inhibitor (Compound 1) were administered in drinking water. SAMR1 mice treated with vehicle were included as a control (n=8). All drugs were administered via drinking water and diluted in vehicle. Drug concentration was calculated weekly in function of body weight and corrected in function of drinking water consumption.\nOpen Field (OF): A 50×50-cm white plastic arena with 25-cm-high walls was used to analyze spontaneous exploratory behavior. The floor of the apparatus was divided into 25 equal squares. The movements of each animal were video recorded during 5 min. Locomotor activity was analyzed by video-tracking over the captured images using SMART® (v3.0, PanLab, SLU, Spain).\n(§3) Statistical analysis: SAMR1 and SAMP8 vehicle groups were compared by t-Test. Among the SAMP8 groups, different treatments were compared by oneway-ANOVA with Dunnet and SNK post-Hoc analysis."}, "[2]": {"tested_on": "isolated Sprague-Dawley male rats", "assay": "Elevated plus maze (EPM) test in the rat isolation rearing model", "settings": "0.16 or 0.48 mg/kg/day in drinking water", "procedure": "(§4) Right after the weaning (post natal day 21-23), 48 Sprague-Dawley male rats were divided in two groups: Control (Non Isolated; n=12), maintained 3-4 animals per cage; Isolated (n=36), 1 animal per cage. Starting on postnatal day (PND) 61, adult isolated male rats were treated with vehicle, Compound 1 at 0.16 mg/kg/day or Compound 1 at 0.48 mg/kg/day (n=12/group) for 5 weeks. Control (non-isolated) animals were treated with vehicle. The administration route was drinking water and the vehicle 1.8% 2-hydroxypropyl-β-cyclodextrin. Drug concentration was adjusted weekly by body weight and water consumption. During the last week of treatment, all animals were tested in the RI (PND94) to evaluate social behavior and, on a different day, in the EPM test (PND87-88) to evaluate anxiety behavior.\nThe elevated plus maze (EPM) test was perfomed following a similar protocol to that described for mice in Example 3 above, as follows: The EPM consisted of four arms at right angles to each other connected to a central square and maintained elevated 50 cm above the floor. Two of the opposite arms had high walls (enclosed arms, 46.5×12×42 cm), whereas the other two were open arms (46.5×12×0.3 cm). The animal was placed facing a closed arm, and its movements were video-recorded for 5 min and analyzed by video-tracking using SMART® (v2.5.21, PanLab, SLU, Spain). […]"}, "[3]": {"tested_on": "isolated Sprague-Dawley male rats", "assay": "Resident-intruder (RI) test in the rat isolation rearing model (social withdrawal)", "text": "In this model, rats are isolated after weaning on postnatal day 21 (PND21) and deprived of the normal environment that preconditions their social behavior. Isolation in this phase of the development of the rat may lead to behavior alterations, particularly a lack of interest for social interactions, which can be used as a model for human social withdrawal.\nas §4\nThe resident-intruder (RI) test was performed following a similar protocol to that described for mice in Example 3 above, as follows: Briefly, the test subject (resident) was maintained in its home cage without bedding changes for one week. […] The session was video-recorded during 15 min, and social interaction (parameters measured: active and passive social interaction, avoidance and time without social interaction) and aggressive behavior of the test subject were analyzed by an experimenter blind to the treatment.\nStatistical analysis: Non Isolated and Isolated vehicle groups were compared by t-Test. Among the Isolated groups, different drug treatments were compared by oneway-ANOVA with Dunnet and SNK post-Hoc analysis."}, "[4]": {"tested_on": "female SAMP8 mice", "assay": "Three chamber test (TCT) in female SAMP8 mice", "settings": "0.96 mg/kg/day in drinking water for 4 months", "text": "In this test, after adaptation to the thee-chamber arena, a mouse is released into the middle chamber and allowed to explore the other compartments. In the adjacent ‘mouse’ compartment a docile stimulus mouse is situated in a mesh-wire container, while in the other adjacent compartment a similar container is located without stimulus mouse (object compartment). The propensity to approach or avoid the compartment with the stimulus mouse provides a measure of social interaction behavior/sociability. Wild type mice prefer social interaction and spend more time in the mouse compartment in comparison to the object compartment.\nIn this study, 8-month old female SAMP8 mice were treated either with vehicle (n=9) or 0.96 mg/kg/day of Compound 1 (n=12) for 4 months and then subjected to the TCT. […] Drug concentration was calculated weekly in function of body weight and corrected in function of drinking water consumption.\nThe TCT was performed in a Plexiglas transparent box with three identical consecutive chambers (15×15×20 cm) with two identical small metallic cages placed in both lateral chambers. […] This habituation time was monitored to avoid animals showing preference for one of the chambers. […] The time spent in each chamber and the time of direct exploration of the novel mice was measured during a total observation time of 10 minutes. […]"}, "[5]": {"tested_on": "male SAMP8 mice", "assay": "Elevated plus maze (EPM) test in male SAMP8 mice", "procedure": "as §1, §2\nElevated Plus Maze (EPM): The EPM consisted of four arms at right angles to each other connected to a central square and maintained elevated 50 cm above the floor. Two of the opposite arms had high walls (enclosed arms, 30×5×15 cm), whereas the other two were open arms (30×5×0 cm). The animal was placed facing a closed arm, and its movements were video-recorded for 5 min and analyzed by video-tracking using SMART® (v3.0, PanLab, SLU, Spain).\nas §3"}, "[6]": {"tested_on": "male SAMP8 mice", "assay": "Resident-intruder (RI) test in male SAMP8 mice (aggressive behavior)", "procedure": "In this study, male SAMP8 animals were treated either with vehicle (n=5), 0.32 (n=8) or 0.96 (n=8) mg/kg/day of Compound 1 for 5 weeks from month 5 of age and then subjected to the RI test. Vehicle (1.8% 2-Hydroxypropyl-β-cyclodextrin, Sigma-Aldrich, Spain) or Compound 1 were administered in drinking water. SAMR1 mice treated with vehicle were included as a control (n=6). All drugs were administered via drinking water and diluted in vehicle. Drug concentration was calculated weekly in function of body weight and corrected in function of drinking water consumption.\nThe resident-intruder (RI) test was performed as follows: the test subject (resident) was maintained in its home cage without bedding changes for one week. […] The session (20 min) was video-recorded and social interaction (parameters tested: social interaction and rearings) and aggressive behavior (parameters tested: lateral threats, clinch attacks, keep-down behavior, and total attacks as the sum of all three aggressive behavior parameters measured) of the test subject were analyzed by an experimenter blind to the treatment.\nas §3"}}, "data": [{"compound": "Nc1nnc(CN[C@@H]2C[C@H]2c2ccc(OCc3ccccc3)cc2)o1", "note": "[Compound 1, 5-((((1R,2S)-2-(4-(benzyloxy)phenyl)cyclopropyl)amino)methyl)-1,3,4-oxadiazol-2-amine]", "values": [{"measurement": "locomotor activity", "setting": "[1]", "result": "nor did treatment with Compound 1 significantly affect locomotor activity"}, {"measurement": "effect on anxiety or locomotor activity", "setting": "[2]", "result": "did not produce any significant effect"}, {"measurement": "number of evitations", "setting": "[3]; isolated rats, 0.16 or 0.48 mg/kg/day in drinking water for 5 weeks, vs non-isolated rats, FIG. 4", "result": "restored to normality"}, {"measurement": "time without social interaction", "setting": "[3]; isolated rats, 0.16 or 0.48 mg/kg/day in drinking water for 5 weeks, FIG. 3", "result": "dose dependently reduced"}, {"measurement": "tolerability of doses on long-term treatment", "setting": "[3]; rats, 0.16 or 0.48 mg/kg/day in drinking water", "result": "well-tolerated"}, {"measurement": "preference for the socialization chamber (mice chamber) over the Object chamber", "setting": "[4]; vs SAMR1, FIG. 5", "result": "restored"}, {"measurement": "time spent exploring a novel mouse", "setting": "[4]; vs SAMR1, FIG. 6", "result": "restored"}, {"measurement": "anxiolytic or sedative activity", "setting": "[5]; conclusion from OF and EPM tests in SAMP8 mice", "result": "did not have anxiolytic or sedative activity"}, {"measurement": "time in the open arms of the EPM", "setting": "[5]; male SAMP8 mice, 0.32 or 0.96 mg/kg/day in drinking water", "result": "not significantly modified"}, {"measurement": "number of total attacks", "setting": "[6]; male SAMP8 mice, 0.32 or 0.96 mg/kg/day in drinking water for 5 weeks, vs vehicle-treated SAMR1, FIG. 1", "result": "lowered the number of attacks in SAMP8 mice to SAMR1 levels"}, {"measurement": "number of clinch attacks", "setting": "[6]; male SAMP8 mice, 0.32 or 0.96 mg/kg/day in drinking water for 5 weeks, vs vehicle-treated SAMR1, FIG. 2", "result": "lowered the number of attacks in SAMP8 mice to SAMR1 levels"}, {"measurement": "tolerability of doses on long-term treatment", "setting": "[6]; mice, 0.32 or 0.96 mg/kg/day in drinking water", "result": "well-tolerated"}]}]}
